Values after ≈ are worked out from the molar mass of the structure shown. Where two headings read alike, the source gives them in different places.
Tests used:
[1] = test system: A. baumannii 1650; experiment: MIC assay, strain 1650; type: cell-based, Acinetobacter baumannii; conditions: Acinetobacter baumannii, strain 1650
Method: (§1) MIC and MBC assays were performed in this study as documented by us previously.^17,23,24,25 The A. baumannii strains used are detailed in Table 7.

[2] = test system: A. baumannii 1649 biofilm; experiment: biofilm eradication determination assay, strain 1649; type: cell-based, Acinetobacter baumannii; conditions: 90% biofilm eradication, Table 8
Method: (§2) These assays were performed as described by us previously,^26,24 as follows. Each of the A. baumannii strains were grown overnight in Mueller Hinton Broth (MHB). The next day these were used to seed fresh MHB to an OD600 of 0.5, with 150 μL then added to the wells of a 96 well plate and grown for 24 hours at 37° C. After 24 hours, the planktonic bacteria were carefully removed and fresh MHB was added with increasing concentrations of lead quinazolines. After incubation at 37° C. for 24 hours, planktonic cells were removed and biofilms were washed three times with phosphate buffered saline (PBS). Biofilms were then resuspended in PBS and plated for cell viability on tryptic soy agar. Biofilm recovery was assessed compared to no drug controls, and determined as percent eradication. This was used to determine MBEC90 values (Minimal Biofilm Eradication Concentration), where the viability of cells within the biofilm was reduced by 90%.

[3] = test system: A. baumannii 1650; experiment: minimal bactericidal concentration (MBC) assay, strain 1650; type: cell-based; conditions: Acinetobacter baumannii, Table 8, read-out: MBC90 1650
Description: (§3) Lead quinazolines 4, 5, 26, 29, 27, and 30 were selected to be further evaluated for antimicrobial effects. The first assay utilized was a minimal bactericidal concentration (MBC) assay, to assess whether leads compounds were bacteriostatic or bactericidal. The six lead agents were screened to identify their MBC90 towards each of the six A. baumannii isolates used in the SAR studies (Table 8), however for simplicity only the representative data for isolate 1646 is detailed below (Table 6). […] Further to this, we were able to obtain complete eradication of bacterial growth for these two compounds at 1 μM for 24 and 5 μM for 25.
as §1

[4] = test system: A. baumannii 1646; experiment: minimal bactericidal concentration (MBC) assay, strain 1646; type: cell-based, Acinetobacter baumannii
Description: as §3, §1

[5] = test system: A. baumannii 1649; experiment: minimal bactericidal concentration (MBC) assay, strain 1649; type: cell-based; conditions: Acinetobacter baumannii, Table 8, read-out: MBC90 1649
Description: as §3, §1

[6] = test system: A. baumannii 1403 biofilm; experiment: biofilm eradication determination assay, strain 1403; type: cell-based, Acinetobacter baumannii; conditions: 90% biofilm eradication, Table 8
Method: as §2

[7] = test system: A. baumannii 1651; experiment: minimal bactericidal concentration (MBC) assay, strain 1651; type: cell-based; conditions: Acinetobacter baumannii, Table 8, read-out: MBC90 1651
Description: as §3, §1

[8] = test system: A. baumannii 1646; experiment: MIC assay, strain 1646; type: cell-based, Acinetobacter baumannii; conditions: Acinetobacter baumannii
Method: as §1

[9] = test system: A. baumannii 1650 biofilm; experiment: biofilm eradication determination assay, strain 1650; type: cell-based, Acinetobacter baumannii; conditions: 90% biofilm eradication, Table 8
Method: as §2

[10] = test system: A. baumannii 1403; experiment: MIC assay, strain 1403; type: cell-based, Acinetobacter baumannii; conditions: Acinetobacter baumannii, strain 1403
Method: as §1

[11] = test system: A. baumannii 1652 biofilm; experiment: biofilm eradication determination assay, strain 1652; type: cell-based, Acinetobacter baumannii; conditions: 90% biofilm eradication, Table 8
Method: as §2

[12] = test system: A. baumannii 1651; experiment: MIC assay, strain 1651; type: cell-based, Acinetobacter baumannii; conditions: Acinetobacter baumannii, strain 1651
Method: as §1

[13] = test system: A. baumannii 1652; experiment: MIC assay, strain 1652; type: cell-based, Acinetobacter baumannii; conditions: Acinetobacter baumannii, strain 1652
Method: as §1

[14] = test system: A. baumannii 1651 biofilm; experiment: biofilm eradication determination assay, strain 1651; type: cell-based, Acinetobacter baumannii; conditions: 90% biofilm eradication, Table 8
Method: as §2

[15] = test system: A. baumannii 1652; experiment: minimal bactericidal concentration (MBC) assay, strain 1652; type: cell-based; conditions: Acinetobacter baumannii, Table 8, read-out: MBC90 1652
Description: as §3, §1

[16] = test system: A. baumannii 1403; experiment: minimal bactericidal concentration (MBC) assay, strain 1403; type: cell-based; conditions: Acinetobacter baumannii, Table 8, read-out: MBC90 1403
Description: as §3, §1

[17] = test system: A. baumannii 1649; experiment: MIC assay, strain 1649; type: cell-based, Acinetobacter baumannii; conditions: Acinetobacter baumannii, strain 1649
Method: as §1

[18] = test system: A. baumannii 1646 biofilm; experiment: biofilm eradication determination assay, strain 1646; type: cell-based, Acinetobacter baumannii; conditions: for MBEC90: Table 6, representative data for isolate 1646; for reduction in biofilm viability: at 50 μM; for reduction in biofilm viability / MBEC90 1646: strain 1646; for MBEC90 1646: 90% biofilm eradication, Table 8 and text
Method: as §2

[19] = test system: human HepG2 cells; type: cell-based; conditions: for LD50(HepG2): human, 48 h
Method: Cytotoxicity assays were performed using human HepG2 cells (human liver epithelial with hepatocellular carcinoma), as described by us previously.^17,24 Cells were cultured in Dulbecco's modified eagle medium (DMEM), supplemented with 10% fetal bovine serum and 1% penicillin-streptomycin for 3 days at 37° C. and 5% CO2. Cells were then diluted to 1×10^5 ml^−1 using fresh DMEM and added to 96 well tissue culture plates at a volume of 100 μL. Plates were incubated for 24 hours at 37° C. and 5% CO2, allowing the cells to adhere to the plastic. […] Plates were then incubated for 48 hours at 37° C. and 5% CO2. After 48 hours the DMEM was removed and 100 μL of new media was added containing MTT (3-(4, 5-dimethylthiazol-2-yl)-2, 5-diphenyltetrazolium bromide), followed by incubation for four hours at 37° C. and 5% CO2. […] Lead compounds were solvated in 100% DMSO for these studies, which served as the negative control. LD50 values were determined for each compound by comparison to vehicle only controls.

[20] = test system: A. baumannii; experiment: MIC assay, A. baumannii isolates (strain not given); type: cell-based, Acinetobacter baumannii; conditions: Acinetobacter baumannii; most isolates besides the 1652 strain; read-out: MIC against most isolates
Method: as §1

[21] = Tables 1, 3, 4, 5 and footnotes, read-out: 1650 MIC
[22] = lead quinazolines, Table 8, read-out: MIC 1650
[23] = Acinetobacter baumannii, 1646, strain 1646, Table 8 and text, read-out: MBC90 1646
[24] = Acinetobacter baumannii, Table 6, representative data for isolate 1646, read-out: MBC90
[25] = Table 6, representative data for isolate 1646, read-out: MIC
[26] = strain 1646, Tables 1, 3, 4, 5 and footnotes, read-out: 1646 MIC
[27] = strain 1646, lead quinazolines, Table 8, read-out: MIC 1646
[28] = Tables 1, 3, 4, 5 and footnotes, read-out: 1403 MIC
[29] = lead quinazolines, Table 8, read-out: MIC 1403
[30] = Tables 1, 3, 4, 5 and footnotes, read-out: 1651 MIC
[31] = lead quinazolines, Table 8, read-out: MIC 1651
[32] = Tables 1, 3, 4, 5 and footnotes, read-out: 1652 MIC
[33] = lead quinazolines, Table 8, read-out: MIC 1652
[34] = Tables 1, 3, 4, 5 and footnotes, read-out: 1649 MIC
[35] = lead quinazolines, Table 8, read-out: MIC 1649
[36] = at 25 μM (highest concentration tested)

Row | SMILES | MIC [1, 21] [µM] | MIC [1, 22] [µM] | MBEC90 1649 [2] [µM] | MBC [3] [µM] | MBC [4, 23] [µM] | MBC [4, 24] [µM] | MBC [5] [µM] | MBEC90 1403 [6] [µM] | MBC [7] [µM] | MIC [8, 25] [µM] | MIC [8, 26] [µM] | MIC [8, 27] [µM] | MBEC90 1650 [9] [µM] | MIC [10, 28] [µM] | MIC [10, 29] [µM] | MBEC90 1652 [11] [µM] | MIC [12, 30] [µM] | MIC [12, 31] [µM] | MIC [13, 32] [µM] | MIC [13, 33] [µM] | further results
1 | CCC/C=C/c1ccc2nc(NCc3ccccc3)nc(NC)c2c1 [Compound 26, (E)-N^2-Benzyl-N^4-methyl-6-(pent-1-en-1-yl)quinazoline-2,4-diamine] | 25 (≈ 8.31 µg/mL) | 25 (≈ 8.31 µg/mL) | 63 | 16 (≈ 5.32 µg/mL) | 1.8 (≈ 0.598 µg/mL) | 1.8 (≈ 0.598 µg/mL) | 10 (≈ 3.32 µg/mL) | 24 | 5.7 (≈ 1.89 µg/mL) | 1 (≈ 0.332 µg/mL) | 2 (≈ 0.665 µg/mL) | 1 (≈ 0.332 µg/mL) | 50 | 10 (≈ 3.32 µg/mL) | 10 (≈ 3.32 µg/mL) | 97 | 2 (≈ 0.665 µg/mL) | 2 (≈ 0.665 µg/mL) | 30 (≈ 9.97 µg/mL) | 30 (≈ 9.97 µg/mL) | complete bacterial eradication concentration as multiple of MIC ([4]; isolate 1646): 5 ×; concentration giving complete eradication of bacterial growth ([4]; isolate 1646): 5 µM; MBEC90 1651 [14]: 24 µM; MBC [15]: 23 µM (≈ 7.65 µg/mL); MBC [16]: 40 µM (≈ 13.3 µg/mL); MIC [17, 34]: 10 µM (≈ 3.32 µg/mL); MIC [17, 35]: 10 µM (≈ 3.32 µg/mL); MBEC90 [18]: 8.9 µM; reduction in biofilm viability [18]: 1.4 log; MBEC90 1646 [18]: 8.9 µM; HepG2 cell viability ([19]; at 12 μM): 49%; HepG2 cell viability [19, 36]: 41%; LD50(HepG2) [19]: 16 µM
2 | CNc1nc(NCc2ccccc2)nc2ccc(C3=CCCCC3)cc12 [Compound 29, N^2-Benzyl-6-(cyclohex-1-en-1-yl)-N^4-methylquinazoline-2,4-diamine] | 10 (≈ 3.44 µg/mL) | 10 (≈ 3.44 µg/mL) | 58 | 16 (≈ 5.51 µg/mL) | 1.5 (≈ 0.517 µg/mL) | 1.5 (≈ 0.517 µg/mL) | 9.1 (≈ 3.13 µg/mL) | 20 | 4 (≈ 1.38 µg/mL) | 2 (≈ 0.689 µg/mL) | 2 (≈ 0.689 µg/mL) | 2 (≈ 0.689 µg/mL) | 48 | 2 (≈ 0.689 µg/mL) | 3 (≈ 1.03 µg/mL) | 77 | 2 (≈ 0.689 µg/mL) | 2 (≈ 0.689 µg/mL) | 30 (≈ 10.3 µg/mL) | 30 (≈ 10.3 µg/mL) | MIC [20]: 2 µM (≈ 0.689 µg/mL); MBEC90 1651 [14]: 21 µM; MBC [15]: 11 µM (≈ 3.79 µg/mL); MBC [16]: 22 µM (≈ 7.58 µg/mL); MIC [17, 34]: 10 µM (≈ 3.44 µg/mL); MIC [17, 35]: 8 µM (≈ 2.76 µg/mL); MBEC90 [18]: 8.9 µM; reduction in biofilm viability [18]: 1.6 log; MBEC90 1646 [18]: 8.9 µM; HepG2 cell viability ([19]; at 12 μM): 42%; HepG2 cell viability [19, 36]: 32%; LD50(HepG2) [19]: 23 µM
3 | CNc1nc(NCc2ccccc2)nc2ccc(C3CCCCC3)cc12 [Compound 30, N^2-Benzyl-6-cyclohexyl-N^4-methylquinazoline-2,4-diamine] | 2 (≈ 0.693 µg/mL) | 20 (≈ 6.93 µg/mL) | 68 | 22 (≈ 7.62 µg/mL) | 1.1 (≈ 0.381 µg/mL) | 1.1 (≈ 0.381 µg/mL) | 33 (≈ 11.4 µg/mL) | 21 | 28 (≈ 9.7 µg/mL) | 2 (≈ 0.693 µg/mL) | 2 (≈ 0.693 µg/mL) | 2 (≈ 0.693 µg/mL) | 46 | 2 (≈ 0.693 µg/mL) | 20 (≈ 6.93 µg/mL) | >100 | 2 (≈ 0.693 µg/mL) | 20 (≈ 6.93 µg/mL) | 10 (≈ 3.46 µg/mL) | 20 (≈ 6.93 µg/mL) | MIC [20]: 2 µM (≈ 0.693 µg/mL); MBEC90 1651 [14]: 33 µM; MBC [15]: 17 µM (≈ 5.89 µg/mL); MBC [16]: 32 µM (≈ 11.1 µg/mL); MIC [17, 34]: 2 µM (≈ 0.693 µg/mL); MIC [17, 35]: 15 µM (≈ 5.2 µg/mL); MBEC90 [18]: 41.2 µM; reduction in biofilm viability [18]: 4.2 log; MBEC90 1646 [18]: 41 µM; HepG2 cell viability [19, 36]: 39%; LD50(HepG2) [19]: 11 µM

Source: patent US10323007B1, “N2N N4-disubstituted quinazoline-2,4-diamines and uses thereof” (University of South Florida, priority 2016, dated 2019)
